Results published in patent publication US8691790B2, “Therapy of neurological inflammatory diseases with (5'-deoxy-5'-adenosyl) cobamamide, recombinant human growth hormone, interleukins IL-1, IL-6, IL-11, epidermal growth factor, and physiotherapy” (priority 2009, dated 2014).
“Also recorded” adds a separate entry of the source.

Experiments:
[1] = test system: clinically definite MS patient in the Secondary Progressive stage of MS (SPMS); assay: Scoping experiment in therapy with daily AdoCbl injections in one MS patient; assay type: in vivo, human
Source text: The current patent, by Boucher, teaches the effective use of AdoCbl, by itself, for therapy of MS and other neurological inflammatory diseases and neurodegenerative diseases. […] Approximately 10 years ago the MS Patient was deemed to be in the Secondary Progressive Multiple Sclerosis (SPMS) stage due to the unremitting accumulation of disability. The MS Patient had loss of memory, cognitive impairment, loss of balance, fatigue, nocturia, not able to lift right foot from the floor, not able to raise right hand, not able to write with the right hand or to use a computer keyboard with the right hand, not able to grip with the right hand, not able to eat with a fork in the right hand, had poor heat tolerance, and was marginally ambulatory with a rollator. The MS patient was more affected on the right side than on the left, which prevented the use of a manual wheelchair. A scoping experiment in therapy with daily injections of 1000 mcg of AdoCbl was initiated. […] After three days, the injection size was increased to 5000 mcg of AdoCbl daily. The MS Patient had been making daily injections of 20 mg Copaxone, but these were stopped for about two months when the scoping experiment with daily injections of AdoCbl was initiated. […] The current patent, by Boucher, teaches that AdoCbl, by itself, provides effective therapy of MS and other inflammatory diseases, that AdoCbl facilitates remyelination, that AdoCbl stops secondary progression of disability in MS and allows extensive recovery from the symptoms of MS. The scoping experiment in therapy with AdoCbl was intended as a test of the etiological hypothesis that the enzyme ATP: Cob (I) alamin adenosyltransferase (ATR) in the CSF was a target of the immune system, which was a major factor in the development of MS. The results of the scoping experiment in therapy strongly support the proposed etiological hypothesis. There are missing details, potentially. Therefore, this patent is not to be restricted to addressing the proposed etiological hypothesis, as other etiological processes are possible.
Prior art in the patent literature and in the published medical literature for therapy of MS has no example of therapy that stops and reverses the progressive accumulation of disability.
A scoping experiment in therapy by parenteral injection of at a dose of between 1 μg and 2.5 g daily AdoCbl into a human subject with clinically definite MS in the secondary progressive stage was conducted.

[2] = test system: Relapsing Remitting Multiple Sclerosis (RRMS); settings: human trials reported in the literature; cited from earlier work
[3] = test system: Chronic Progressive forms of MS; settings: human trials reported in the literature; cited from earlier work

Row | Molecule | ambulation ([1]; 5000 mcg of AdoCbl daily, patient was marginally ambulatory with a rollator before) | effect on progression / accumulation of disability in MS ([1]; AdoCbl by itself, single SPMS patient, 98% pure AdoCbl, for more than one year) | ability to raise right hand ([1]; daily injections of 1000 mcg of AdoCbl, after three days, single SPMS patient) | recovery of lost abilities and MS symptoms ([1]; injection size increased to 5000 mcg of AdoCbl daily after three days, Copaxone stopped for about two months, single SPMS patient) | recovery of abilities and symptoms (summary statement) ([1]; parenteral injection, dose of between 1 μg and 2.5 g daily AdoCbl, human subject, secondary progressive MS) | need for continued AdoCbl injections ([1]; single SPMS patient) | effect on rate of relapse [2] | benefit in chronic progressive MS [3]
1 | C/C1=C2/[N-]C([C@H](CC(N)=O)[C@@]2(C)CCC(=O)NC[C@@H](C)OP(=O)([O-])O[C@H]2[C@@H](O)[C@@H](n3cnc4cc(C)c(C)cc43)O[C@@H]2CO)[C@]2(C)N=C(/C(C)=C3N=C(/C=C4N=C1[C@@H](CCC(N)=O)C\4(C)C)[C@@H](CCC(N)=O)[C@]\3(C)CC(N)=O)[C@@H](CCC(N)=O)[C@]2(C)CC(N)=O.[CH2-][C@H]1O[C@@H](n2cnc3c(N)ncnc32)[C@@H](O)[C@@H]1O.[Co+3] [AdoCbl, (5′-deoxy-5′-adenosyl) cobamide] | ambulatory and does not need a wheelchair | dramatic therapeutic effect; also recorded: stops the accumulation of disability and substantially reverses disability; also recorded: stopped and reversed chronic progression of MS; also recorded: effectiveness in stopping and even reversing the progressive accumulation of neurological damage | able to raise their right hand above their head | has recovered memory, cognition, normal balance, does not experience fatigue, no longer has nocturia, has recovered some ability with the right leg, is able to write with the right hand, use a computer keyboard with that right hand, and eat with a fork in the right hand | regained physical abilities lost years before, regained memory and cognitive abilities, and had complete recovery from many common symptoms of MS such as fatigue and poor balance | necessary to prevent relapse to the common symptoms of MS | – | –
2 | Copolymer-1 | – | – | – | – | – | – | effective in lowering the rate of relapse | no effective benefit
